Experimental data: ChEMBL document CHEMBL4831544, “Discovery of IHMT-EZH2-115 as a Potent and Selective Enhancer of Zeste Homolog 2 (EZH2) Inhibitor for the Treatment of B-Cell Lymphomas” (J Med Chem, 2021)

What was measured:
[1] = Clearance in rat at 10 mg/kg, po; format: ADME, organism-based; details: in vivo
[2] = target: Histone-lysine N-methyltransferase EHMT1 (Homo sapiens) (UniProt Q9H9B1); assay: Inhibition of GLP (unknown origin) at 10 uM using SAM as substrate measured up to 960 mins by AlphaScreen microplate reader assay relative to control; details: time min <=960
[3] = target: Histone-lysine N-methyltransferase, H3 lysine-36 specific (Homo sapiens) (UniProt Q96L73); assay: Inhibition of NSD1 (unknown origin) at 10 uM using SAM as substrate measured up to 960 mins by AlphaScreen microplate reader assay relative to control; details: time min <=960
[4] = Apparent volume of distribution in mouse at 10 mg/kg, po measured up to 24 hrs by LC-MS/MS analysis; format: ADME, organism-based; details: in vivo
[5] = Half life in rat at 10 mg/kg, po; format: ADME, organism-based; details: in vivo
Raji = assay: Antiproliferative activity against human Raji cells expressing wild type EZH2 assessed as inhibition of cell growth measured after 6 days by CellTiter-Glo luminescent assay; details: 144 h
[6] = AUC (0 to infinity) in rat at 10 mg/kg, po; format: ADME, organism-based; design: time infinity, route oral, dose 10 mg/kg; details: in vivo
[7] = target: Protein arginine N-methyltransferase 6 (Homo sapiens) (UniProt Q96LA8); assay: Inhibition of PRMT6 (unknown origin) at 10 uM using SAM as substrate measured up to 960 mins by AlphaScreen microplate reader assay relative to control; details: time min <=960
KARPAS-422 = assay: Antitumor activity against human KARPAS-422 cells harboring EZH2 Y641N mutant xenografted in NCG mouse assessed as change in tumor weight at 50 mg/kg, po BID via gavage measured after 28 days (reference value: 2.14 g); format: functional; details: time 28 day
[8] = tested on: Histone-lysine N-methyltransferase EZH2 (Homo sapiens), Q15910 [P132S]; assay: Inhibition of EZH2 P132S mutant (unknown origin) at 10 uM using SAM as substrate measured up to 960 mins by AlphaScreen microplate reader assay relative to control; details: time min <=960
[9] = tested on: Histone-lysine N-methyltransferase EZH2 (Homo sapiens), Q15910 [Y641S]; assay: Inhibition of EZH2 Y641S mutant (unknown origin) at 10 uM using SAM as substrate measured up to 960 mins by AlphaScreen microplate reader assay relative to control; details: time min <=960
[10] = target: Histone-lysine N-methyltransferase EHMT2 (Homo sapiens) (UniProt Q96KQ7); assay: Inhibition of G9A (unknown origin) at 10 uM using SAM as substrate measured up to 960 mins by AlphaScreen microplate reader assay relative to control; details: time min <=960
[11] = AUC (0 to t) in mouse at 1 mg/kg, iv measured up to 24 hrs by LC-MS/MS analysis; format: ADME, organism-based; design: route intravenous, dose 1 mg/kg, time <=24; details: in vivo
[12] = tested on: Histone-lysine N-methyltransferase EZH2 (Homo sapiens), Q15910 [UNDEFINED MUTATION]; assay: Inhibition of EZH2 A738T mutant (unknown origin) at 10 uM using SAM as substrate measured up to 960 mins by AlphaScreen microplate reader assay relative to control; details: time min <=960
Chain of Histone-lysine N-methyltransferase EZH2 (Homo sapiens), Q15910 [UNDEFINED MUTATION] (Q15910 whole entry, looked up, stated change not applied): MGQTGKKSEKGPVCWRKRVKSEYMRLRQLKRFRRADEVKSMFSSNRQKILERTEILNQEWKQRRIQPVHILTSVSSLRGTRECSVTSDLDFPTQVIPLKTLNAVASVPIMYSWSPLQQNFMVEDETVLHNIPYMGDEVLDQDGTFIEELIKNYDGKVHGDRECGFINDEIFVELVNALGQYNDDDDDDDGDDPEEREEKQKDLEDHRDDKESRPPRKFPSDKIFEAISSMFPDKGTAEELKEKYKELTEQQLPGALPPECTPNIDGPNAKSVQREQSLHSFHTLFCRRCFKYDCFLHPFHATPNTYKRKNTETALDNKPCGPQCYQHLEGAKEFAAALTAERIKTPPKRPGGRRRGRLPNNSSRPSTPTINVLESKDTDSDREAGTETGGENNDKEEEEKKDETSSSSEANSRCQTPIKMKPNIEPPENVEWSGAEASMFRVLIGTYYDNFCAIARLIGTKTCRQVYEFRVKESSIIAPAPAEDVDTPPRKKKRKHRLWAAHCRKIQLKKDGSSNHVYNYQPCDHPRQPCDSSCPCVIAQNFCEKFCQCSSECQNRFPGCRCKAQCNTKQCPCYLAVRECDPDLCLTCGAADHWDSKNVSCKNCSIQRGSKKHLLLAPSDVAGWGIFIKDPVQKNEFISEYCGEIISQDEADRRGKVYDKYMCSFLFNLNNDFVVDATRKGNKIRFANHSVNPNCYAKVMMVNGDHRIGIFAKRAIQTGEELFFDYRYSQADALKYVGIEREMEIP

Chain of Histone-lysine N-methyltransferase EHMT2 (Homo sapiens) (Q96KQ7 whole entry): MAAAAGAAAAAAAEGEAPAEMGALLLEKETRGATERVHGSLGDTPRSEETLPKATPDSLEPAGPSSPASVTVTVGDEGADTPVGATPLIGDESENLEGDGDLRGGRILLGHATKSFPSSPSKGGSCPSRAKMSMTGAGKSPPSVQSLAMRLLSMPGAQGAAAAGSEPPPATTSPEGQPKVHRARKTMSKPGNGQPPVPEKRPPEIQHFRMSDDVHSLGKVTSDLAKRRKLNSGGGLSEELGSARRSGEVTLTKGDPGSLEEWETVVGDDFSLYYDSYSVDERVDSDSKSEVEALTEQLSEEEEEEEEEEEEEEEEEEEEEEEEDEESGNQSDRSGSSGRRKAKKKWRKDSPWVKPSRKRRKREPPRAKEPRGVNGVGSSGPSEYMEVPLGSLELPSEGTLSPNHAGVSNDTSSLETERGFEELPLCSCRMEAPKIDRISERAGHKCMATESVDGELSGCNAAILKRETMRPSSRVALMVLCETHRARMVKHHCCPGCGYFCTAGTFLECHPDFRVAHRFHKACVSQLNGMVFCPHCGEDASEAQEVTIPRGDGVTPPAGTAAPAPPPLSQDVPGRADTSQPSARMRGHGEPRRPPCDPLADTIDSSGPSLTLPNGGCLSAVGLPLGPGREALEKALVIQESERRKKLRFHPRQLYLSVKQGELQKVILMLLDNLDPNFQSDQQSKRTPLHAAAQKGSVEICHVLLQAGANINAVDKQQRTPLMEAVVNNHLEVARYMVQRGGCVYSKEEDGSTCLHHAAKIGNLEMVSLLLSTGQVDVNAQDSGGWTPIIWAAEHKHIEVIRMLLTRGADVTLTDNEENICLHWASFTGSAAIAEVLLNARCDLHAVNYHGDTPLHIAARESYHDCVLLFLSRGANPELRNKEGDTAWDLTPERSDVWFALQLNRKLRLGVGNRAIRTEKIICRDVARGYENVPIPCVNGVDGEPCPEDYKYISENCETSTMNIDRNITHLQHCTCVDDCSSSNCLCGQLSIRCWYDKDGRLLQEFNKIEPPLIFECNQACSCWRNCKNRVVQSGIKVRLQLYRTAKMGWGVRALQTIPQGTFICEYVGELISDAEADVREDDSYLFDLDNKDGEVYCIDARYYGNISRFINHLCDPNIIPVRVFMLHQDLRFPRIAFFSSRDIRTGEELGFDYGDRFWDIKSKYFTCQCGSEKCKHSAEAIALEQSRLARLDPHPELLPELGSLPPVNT
Chain of Histone-lysine N-methyltransferase EHMT1 (Homo sapiens) (Q9H9B1 whole entry): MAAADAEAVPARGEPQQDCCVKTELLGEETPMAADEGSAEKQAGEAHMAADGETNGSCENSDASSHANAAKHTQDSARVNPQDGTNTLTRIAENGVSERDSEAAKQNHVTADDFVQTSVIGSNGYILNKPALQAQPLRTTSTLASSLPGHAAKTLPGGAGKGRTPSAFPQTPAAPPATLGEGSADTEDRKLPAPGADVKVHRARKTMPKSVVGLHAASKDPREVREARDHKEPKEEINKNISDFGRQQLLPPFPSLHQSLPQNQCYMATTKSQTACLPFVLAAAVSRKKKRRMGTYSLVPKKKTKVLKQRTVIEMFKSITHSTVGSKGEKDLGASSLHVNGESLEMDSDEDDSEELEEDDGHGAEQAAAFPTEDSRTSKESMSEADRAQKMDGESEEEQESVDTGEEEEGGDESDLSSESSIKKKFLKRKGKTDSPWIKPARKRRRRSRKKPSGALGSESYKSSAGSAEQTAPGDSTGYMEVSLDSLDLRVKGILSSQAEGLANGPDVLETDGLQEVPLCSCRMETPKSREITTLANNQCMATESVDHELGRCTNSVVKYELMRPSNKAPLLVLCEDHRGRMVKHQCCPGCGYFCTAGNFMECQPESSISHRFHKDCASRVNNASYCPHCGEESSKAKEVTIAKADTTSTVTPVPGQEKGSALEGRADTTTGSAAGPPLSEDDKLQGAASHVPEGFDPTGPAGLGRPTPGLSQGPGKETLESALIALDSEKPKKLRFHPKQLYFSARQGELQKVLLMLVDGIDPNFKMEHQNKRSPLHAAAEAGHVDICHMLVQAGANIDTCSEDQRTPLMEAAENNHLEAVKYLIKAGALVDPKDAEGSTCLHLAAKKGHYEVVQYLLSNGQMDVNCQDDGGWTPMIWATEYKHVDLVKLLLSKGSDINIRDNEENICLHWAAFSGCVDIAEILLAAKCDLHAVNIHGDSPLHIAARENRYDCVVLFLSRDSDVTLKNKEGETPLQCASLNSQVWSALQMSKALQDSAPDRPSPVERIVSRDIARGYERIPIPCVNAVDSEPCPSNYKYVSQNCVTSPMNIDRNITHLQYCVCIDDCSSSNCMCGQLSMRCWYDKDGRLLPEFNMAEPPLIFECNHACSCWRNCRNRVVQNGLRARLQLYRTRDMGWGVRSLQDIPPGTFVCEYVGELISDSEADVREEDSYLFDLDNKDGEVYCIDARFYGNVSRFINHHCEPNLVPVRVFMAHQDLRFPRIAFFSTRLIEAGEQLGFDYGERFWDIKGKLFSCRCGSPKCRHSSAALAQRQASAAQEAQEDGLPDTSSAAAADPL
Chain of Protein arginine N-methyltransferase 6 (Homo sapiens) (Q96LA8 whole entry, looked up): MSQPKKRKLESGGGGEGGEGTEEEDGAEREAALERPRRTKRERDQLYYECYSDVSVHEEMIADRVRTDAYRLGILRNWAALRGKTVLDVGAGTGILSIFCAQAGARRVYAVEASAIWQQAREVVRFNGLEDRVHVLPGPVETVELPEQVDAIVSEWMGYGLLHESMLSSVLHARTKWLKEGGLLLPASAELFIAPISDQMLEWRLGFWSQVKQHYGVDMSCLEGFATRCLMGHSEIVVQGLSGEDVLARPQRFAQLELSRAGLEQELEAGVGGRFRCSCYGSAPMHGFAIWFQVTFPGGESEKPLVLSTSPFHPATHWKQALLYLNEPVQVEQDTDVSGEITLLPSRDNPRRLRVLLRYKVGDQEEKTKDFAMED
Chain of Histone-lysine N-methyltransferase EZH2 (Homo sapiens), Q15910 [P132S] (Q15910 whole entry P132S): as the sequence (Q15910 whole entry, looked up, stated change not applied) above, with P132S counted along it
Chain of Histone-lysine N-methyltransferase EZH2 (Homo sapiens), Q15910 [Y641S] (Q15910 whole entry Y641S): as the sequence (Q15910 whole entry, looked up, stated change not applied) above, with Y641S counted along it

With CCN(C(=O)C1CC1)c1cc(-c2ccc(N3CCN(CC4CC4)CC3)nc2C)cc(C(=O)NCc2c(C)cc(C)[nH]c2=O)c1C as the molecule, how does the CL/F [1] read?
Its CL/F is 291 mL/min/kg.

And the inhibition [2]?
The inhibition was 0%.

And the inhibition [3]?
The inhibition was 12%.

What about the Vz [4] of the same molecule?
The Vz was 18.638 L/kg.

What about the half-life [5] of the same molecule?
Its half-life is 1.45 h.

What about the GI50 (Raji) of the same molecule?
The GI50 was over 10 µM.

And the AUC(0-inf) [6]?
The AUC(0-inf) was 604 ng·h/mL.

What about the inhibition [7] of the same molecule?
Its inhibition is 0%.

What about the Activity (KARPAS-422) of the same molecule?
Its Activity is 1.17 g.

What about the inhibition [8] of the same molecule?
Its inhibition is 100%.

What about the inhibition [9] of the same molecule?
The inhibition was 90%.

And the inhibition [10]?
Its inhibition is 0%.

What about the AUC(0-t) at 24 h [11] of the same molecule?
Its AUC(0-t) at 24 h is 366 ng·h/mL.

And the inhibition [12]?
Its inhibition is 100%.
